Data from publication PMC7115581 (European Journal of Medicinal Chemistry, 2016).

Assays:
[1] = test system: human embryonic lung (HEL) cells; conditions: Table 2, concentration that causes a microscopically detectable alteration of morphology
[2] = test system: varicella zoster virus (VZV); conditions: for anti-VZV activity (in words): HEL cells; for antiviral activity (in words): at 100 μM
[3] = test system: varicella zoster virus (VZV); test: in vitro; conditions: human
HCMV, HSV-1, HSV-2 = assay type: cell-based; conditions: HCMV AD-169 and Davis, HSV-1 KOS and TK- KOS ACVr, HSV-2 G; HEL cell cultures
[4] = test system: varicella zoster virus (VZV); test: microbe, parasite or virus in culture; conditions: Human alphaherpesvirus 3, HEL, read-out: EC50 against VZV
[5] = test system: broad variety of RNA viruses, including HIV-1 and HIV-2, feline coronavirus, vesicular stomatitis virus, Coxsackie virus B4, respiratory syncytial virus …; assay type: cell-based
[6] = test system: human cytomegalovirus (HCMV) Davis strain; test: microbe, parasite or virus in culture; assay type: cell-based; conditions: Human betaherpesvirus 5, HEL, read-out: Antiviral activity EC50 HMCV Davis
[7] = test system: human embryonic lung (HEL) cells; test: Cytotoxicity, inhibition of HEL cell growth; assay type: cell-based; conditions: for cytotoxic activity (in words): at 100 μM
[8] = Cytotoxicity, inhibition of HEL cell growth; assay type: cell-based, human; conditions: human, human embryonic lung (HEL) cells, CC50, cytotoxic concentration required to reduce HEL cell growth by 50%; 3 days
[9] = test system: varicella-zoster virus (VZV) TK+ OKA strain; test: microbe, parasite or virus in culture; assay type: cell-based; conditions: Human alphaherpesvirus 3, HEL, read-out: EC50 TK+ OKA

Row | Structure (SMILES) | Cytotoxicity MMC [1] [µM] | anti-VZV activity (in words) [2] | further results
1 | CCCn1cc(CN2CCCCC2)c2cc(CNc3ccc(Cl)cc3)ccc21 [Compound 8a] | 20 | – | –
2 | CCCn1cc(CN2CCCCC2)c2cc(NC(=O)c3ccccc3)ccc21 [Compound 8c] | 100 | – | –
3 | COC(=O)c1ccc(CNCCc2cn(Cc3ccc(-c4ccccc4)cc3)c3ccccc23)cc1 [Compound 15] | 20 | – | –
4 | Cn1cc(CCN(CCc2ccc(-c3ccccc3)cc2)C(=O)C2CCCCC2)c2ccccc21 [Compound 18a] | – | annihilation of antiviral activity | –
5 | CC(=O)N(CCc1cn(C)c2ccccc12)Cc1ccc2ccccc2c1 [Compound 17f] | – | complete loss of the antiviral activity | –
6 | CCCn1cc(CNCCc2ccc(-c3ccccc3)cc2)c2ccccc21 [Compound 4c] | 4 | – | –
7 | CC(=O)N(CCc1cn(C)c2ccccc12)Cc1cccc2ccccc12 [Compound 17g] | – | complete loss of the antiviral activity | –
8 | CC(=O)N(CCc1cn(C)c2ccccc12)Cc1ccc(-c2ccccc2)cc1 [Compound 17h] | – | complete loss of the antiviral activity | –
9 | CC(=O)N(CCc1cn(C)c2ccccc12)Cc1ccc(Oc2ccccc2)cc1 [Compound 17i] | – | complete loss of the antiviral activity | –
10 | CCCn1cc(CNCCc2ccc(-c3ccccc3)cc2)c2cc(CNc3ccc(Cl)cc3)ccc21 [Compound 8b] | 20 | – | –
11 | CC(=O)N(CCc1ccc(-c2ccccc2)cc1)CCc1cn(C)c2ccccc12 [Compound 17a] | 20 | – | selectivity ratio [3]: 10 to 20; activity against other Herpesviridae (in words) (HCMV, HSV-1, HSV-2): totally inactive; EC50 [4]: 1.7 to 3.6 µM; inhibitory activity against RNA viruses (in words) [5]: totally inactive
12 | c1ccc(-c2ccc(Cn3cc(CN4CCCCC4)c4ccccc43)cc2)cc1 [Compound 4d] | 20 | – | –
13 | Nc1ccn(C[C@@H](CO)OCP(=O)(O)O)c(=O)n1.O.O [Cidofovir, reference compound] | >250 | – | EC50 [6]: 0.51 µM
14 | Cn1cc(CCN(CCc2ccc(-c3ccccc3)cc2)C(=O)OC(C)(C)C)c2ccccc21 [Compound 18d] | – | annihilation of antiviral activity | –
15 | Cn1cc(CCN(CCc2ccc(-c3ccccc3)cc2)C(=O)CCN2CCOCC2)c2ccccc21 [Compound 18c] | – | annihilation of antiviral activity | –
16 | CCCn1cc(C(=O)c2ccc(Cl)cc2)c2ccccc21 [Compound 4a] | >100 | – | antiviral activity (in words) [2]: do not displayed antiviral or cytotoxic activities; cytotoxic activity (in words) [7]: do not displayed antiviral or cytotoxic activities
17 | CC(=O)N(CCc1cn(C)c2ccccc12)c1cccc2ccccc12 [Compound 17e] | – | complete loss of the antiviral activity | –
18 | Cn1cc(CCNCCc2ccc(-c3ccccc3)cc2)c2ccccc21 [Compound 16a] | >4 | – | –
19 | CCCn1cc(CN2CCCCC2)c2ccccc21 [Compound 4b] | >100 | – | antiviral activity (in words) [2]: do not displayed antiviral or cytotoxic activities; cytotoxic activity (in words) [7]: do not displayed antiviral or cytotoxic activities
20 | Nc1nc2c(ncn2COCCO)c(=O)[nH]1 [Acyclovir, acyclovir, reference compound] | >250 | – | CC50 ([7]; cytotoxic concentration required to reduce HEL cell growth by 50%, 3 days): 191 µM; CC50 at 3 days [8]: 224 µM
21 | CC(=O)N(CCc1cn(C)c2ccccc12)c1ccc2ccccc2c1 [Compound 17d] | – | complete loss of the antiviral activity | –
22 | O=c1[nH]c(=O)n([C@H]2C[C@H](O)[C@@H](CO)O2)cc1/C=C/Br [Brivudin, brivudin, reference compound] | >250 | – | EC50 [9]: 0.02 to 0.03 µM
